What was measured:
[1] = test system: alkaloid bitterness in cocoa; assay: Tasting panel, sample vs control: reduction of alkaloid bitterness in cocoa; format: in vivo, human; conditions: 10% unsweetened cocoa powder in water; for bitterness of sample compared to control: room temperature
Experimental: (§1) All concentrations in % are % (wt/wt), unless otherwise indicated. A tasting panel of 5 to 8 panelists was asked to compare the bitterness of two samples (sample with trilobatin and control without) of various caffeine-containing consumables.
(§2) Different concentrations/ranges were tested, with the ones indicated being the ones with a clear bitter masking effect. While higher concentrations reach a bitter masking effect, panelists found a negative impact on the overall flavor profile at higher concentrations.
A tasting panel of 5 to 8 panelists was asked to compare and record the sensory attribute differences between two samples (sample with trilobatin and control without).
The control and sample contained 10% unsweetened cocoa powder in water (Dutch processed dark cocoa powder, commercially available from Hersheys), the sample additionally contained 0.0005% trilobatin.
The samples were served at room temperature.
A tasting panel of 5 to 8 panelists was asked to compare and record the sensory attribute differences between two samples (sample with HDG and control without).
The control and sample contained 10% unsweetened cocoa powder in water (Dutch processed dark cocoa powder, commercially available from Hersheys), the sample additionally contained 0.0020% (w/w) HDG.

[2] = test system: sweet sensitive panelists; assay: Ranking with R-index analysis: isointensity of HDG to sucrose; format: in vivo, human
Experimental: (§3) All examples were performed with sweet sensitive panelists able to detect at least 0.5% of sucrose or less, unless stated otherwise. The concentration detectable by the average consumer will be higher. The results were obtained using 20 panelists in two replications.
The sucrose concentration that tastes isointense in sweetness to HDG was determined using samples of 15 ppm and 20 ppm, each of which was directly compared to a sucrose sample (sucrose solutions of 0.5%, 1%, 1.5% and 2% concentration). Fifteen milliliters of each blinded sample was presented, at room temperature, in random order to 20 sweet sensitive panelists. In two replications (over 1 session), panelists were asked to rank the solutions, from least sweet to most sweet. The data was subjected to an R-index analysis.

[3] = test system: naringin and limonin bitterness; conditions: cited from earlier work
[4] = test system: sweet sensitive panelists; assay: Small panel ranking of HDG in water against sucrose solutions; format: in vivo, human
Experimental: as §3
Further three small panel testings were performed. HDG samples were prepared in concentrations of 5 ppm, 10 ppm, 15 ppm, and 20 ppm in water. All the samples were coded (presented blind) and given to the panel in random order. The panel was also presented with sucrose solutions for comparison The panel was asked to taste each sample and rank the samples from the least sweet to most sweet.

caffeine bitterness = assay: Tasting panel, sample vs control: reduction of caffeine bitterness in water; format: in vivo, human; conditions: 200 ppm caffeine in water
Experimental: as §1, §2
The control and sample contained 0.02 or 200 ppm % caffeine in water, the sample additionally contained 0.000125 to 0.0020 trilobatin.

[5] = test system: alkaloid bitterness in caffeine containing energy drinks; assay: Tasting panel, sample vs control: reduction of alkaloid bitterness in an energy drink; format: in vivo, human; conditions: Redbull and Xenergy energy drinks, 0.0005% trilobatin
Experimental: as §1, §2
The control and sample were caffeine containing energy drinks, the sample additionally contained 0.0005% trilobatin.
The tested caffeine containing energy drinks were sucrose-sweetened glucoronlactone and taurin containing Redbull™ energy drink, and Xenergy™ (Zyions Inc., USA) which is sucralose/Acesulfame-K sweetened and contains vitamin B, calcium, taurine and glucoronlactone.

[6] = test system: alkaloid bitterness in brewed black tea; assay: Tasting panel, sample vs control: reduction of alkaloid bitterness in tea; format: in vivo, human; conditions: 0.001% trilobatin, warm, most panelists
Experimental: as §1, §2
Sample and control were brewed black tea (tea bags, Lipton), the sample additionally contained 0.001% trilobatin which was added to the brewed tea.
Samples and controls were served warm.

[7] = test system: alkaloid caffeine bitterness in instant coffee; assay: Tasting panel, sample vs control: reduction of alkaloid bitterness in coffee; format: in vivo, human; conditions: instant coffee in water
Experimental: as §1, §2
The sample and control were instant coffee (Nescafe, Taster's choice) in water, the sample additionally contained 0.001% (10 ppm) trilobatin. All samples/controls were presented warm to the panelists.

[8] = test system: sweet sensitive panelists; assay: Ranking method with R-index: isointensity of trilobatin in water to sucrose; format: in vivo, human
Experimental: (§4) The sweetness detection threshold of trilobatin was determined as detailed below in 1a, 1b and 1c. All examples were performed with sweet sensitive panelists able to detect at least 0.5% of sucrose or less, unless stated otherwise. The concentration detectable by the average consumer will be higher.
The sensory evaluation was conducted using a ranking method. Samples at ambient temperature were randomly presented in 15 ml blind aliquots (unidentifiable by panelists). Panels consisted of 15 sweet sensitive subjects and samples were presented in 2 replications over 1 session. After tasting each sample, the mouth was rinsed thoroughly with water at ambient temperature prior to tasting the next sample.
Panelists were presented with 0.5%, 1%, 1.5% and 2% sucrose solutions in water and a fifth sample of 100 ppm trilobatin in water. Subjects were asked to rank the samples from low to high with respect to perceived sweet taste. R-indices were calculated for 100 ppm trilobatin versus either 0.5%, 1%, 1.5% or 2% sucrose.
The sensory evaluation was conducted using the method described in example 1b. The panels consisted of 7 sweet sensitive panelists. Panelists were presented with 0.5%, 1%, and 1.5% sucrose solutions in water and a fourth sample of 200 ppm trilobatin in water. Panelists were asked to rank the samples from low to high with respect to perceived sweet taste.

[9] = test system: panelist trained for sweetness detection; assay: Paired comparison of trilobatin in water versus sucrose solutions (sweetness); format: in vivo, human
Experimental: as §4
Trilobatin (20 ppm, 60 ppm, 100 ppm) in water samples were evaluated for isointensity to sucrose solutions in a concentration of 0, 0.5 and 1% sucrose using a paired comparison method. Samples were paired and tasted left to right with rinsing (water) in between, by one panelist trained for sweetness detection.
The trilobatin samples were compared to either 0%, 0.5%, or 1% sucrose solutions.

[10] = test system: tannin-derived bitterness (tannic acid); assay: Tasting panel, sample vs control: tannin bitterness in water; format: in vivo, human; conditions: 0.05%/500 ppm tannic acid in water; 0.000125 to 0.002% trilobatin
Source text: as §1
The control and sample contained 0.05%/500 ppm tannic acid in water. The samples additionally contained 0.000125 to 0.002% trilobatin.

Compound: COc1ccc(CCC(=O)c2c(O)cc(O[C@@H]3O[C@H](CO)[C@@H](O)[C@H](O)[C@H]3O)cc2O)cc1O [HDG, 1-[4-(beta-D-glucopyranosyloxy)-2,6-dihydroxyphenyl]-3-(3-hydroxy-4-methoxyphenyl)-1-propanone]
- bitter aftertaste ([1]; 0.0020% (w/w) HDG): bitter aftertaste that remained
- cocoa aroma ([1]; 0.0020% (w/w) HDG): keep their cocoa aroma
- purine alkaloid bitterness (theobromine, caffeine) in the middle ([1]; 0.0020% (w/w) HDG): reduced
- bitterness of sample compared to control ([1]; 0.0020% (w/w) HDG): less bitter
- sample sweetness (HDG, 15 ppm) ([2]; vs 0.5% sucrose): sweeter
- sample sweetness (HDG, 20 ppm) ([2]; vs 0.5% sucrose): Sweeter
- sample sweetness (HDG, 15 ppm) ([2]; vs 1.0% sucrose): less sweet
- sample sweetness (HDG, 20 ppm) ([2]; vs 1.0% sucrose): Isosweet
- sample sweetness (HDG, 15 ppm) ([2]; vs 1.5% sucrose): less sweet
- sample sweetness (HDG, 20 ppm) ([2]; vs 1.5% sucrose): Less sweet
- sample sweetness (HDG, 15 ppm) ([2]; vs 2.0% sucrose): less sweet
- sample sweetness (HDG, 20 ppm) ([2]; vs 2.0% sucrose): Less sweet
- suppression of naringin and limonin bitterness ([3]; concentrations at or below the sweet taste detection threshold of HDG): not
- naringin and limonin bitterness ([3]; high suprathreshold concentration (ratio taste units sweetener to bitter compound at least 2:1)): suppress
- Rank and taste ([4]; 5 ppm HDG in water): 1 - not sweet
- Isointensity to sucrose ([4]; 10 ppm HDG in water): 0.5 % sucrose
- Rank and taste ([4]; 10 ppm HDG in water): 2 - very slightly sweet
- Isointensity to sucrose ([4]; 15 ppm HDG in water): 0.75% sucrose
- Rank and taste ([4]; 15 ppm HDG in water): 3 - slightly sweet
- Rank and taste ([4]; 20 ppm HDG in water): 4 - sweet
- sweetness threshold detected by sweet sensitive individuals ([4]; HDG in water): about 10 ppm
- sweet taste detection threshold relative to that of trilobatin ([4]; in vivo): about 10 times less

Compound: O=C(CCc1ccc(O)cc1)c1c(O)cc(O[C@@H]2O[C@H](CO)[C@@H](O)[C@H](O)[C@H]2O)cc1O [trilobatin, 1-[4-(beta-D-glucopyranosyloxy)-2,6-dihydroxyphenyl]-3-(4-hydroxyphenyl)-1-propanone]
- caffeine bitterness reduced compared to the control (caffeine bitterness; 0.000125% (1.25 ppm) trilobatin): not
- caffeine bitterness compared to the control (caffeine bitterness; 0.0005% (5 ppm) up to 0.0020 (20 ppm) trilobatin): reduced
- bitter aftertaste [5]: slight bitter aftertaste remains
- bitterness in the middle of the temporal pattern [5]: very effectively blocked
- bitterness of sample compared to control [5]: less bitter
- bitterness of sample compared to control [6]: slightly less bitter
- alkaloid bitterness in the middle and towards the end of the temporal bitterness profile ([1]; 0.0005% trilobatin): markedly reduced
- bitter aftertaste ([1]; 0.0005% trilobatin): no bitter aftertaste
- cocoa aroma ([1]; 0.0005% trilobatin): keep their cocoa aroma
- bitterness of sample compared to control ([1]; 0.0005% trilobatin): less bitter
- concentration at which suppression of coffee flavor starts [7]: about 20 ppm
- concentration at which the coffee flavor is significantly affected [7]: ≥ 50 ppm
- alkaloid caffeine bitterness in the middle and towards the end of the temporal bitterness profile ([7]; 0.001% (10 ppm) trilobatin): markedly reduced
- bitter aftertaste ([7]; 0.001% (10 ppm) trilobatin): no bitter aftertaste
- bitterness of sample compared to control ([7]; 0.001% (10 ppm) trilobatin, warm): less bitter
- sample sweetness (trilobatin, 100 ppm) ([8]; vs 0.5% sucrose): Isosweet
- sample sweetness (trilobatin, 100 ppm) ([8]; vs 1.0% sucrose): Less sweet
- sample sweetness (trilobatin, 100 ppm) ([8]; vs 1.5% sucrose): Less sweet
- sample sweetness (trilobatin, 100 ppm) ([8]; vs 2.0% sucrose): Less sweet
- Taste of trilobatin samples compared to sucrose ([9]; 20 ppm trilobatin in water vs 0% sucrose): isosweet
- Taste of trilobatin samples compared to sucrose ([9]; 20 ppm trilobatin in water vs 0.5% sucrose): notably less sweet
- Taste of trilobatin samples compared to sucrose ([9]; 60 ppm trilobatin in water vs 0% sucrose): weakly sweeter
- Taste of trilobatin samples compared to sucrose ([9]; 60 ppm trilobatin in water vs 0.5% sucrose): less sweet
- Taste of trilobatin samples compared to sucrose ([9]; 100 ppm trilobatin in water vs 0% sucrose): sweeter
- Taste of trilobatin samples compared to sucrose ([9]; 100 ppm trilobatin in water vs 0.5% sucrose): isosweet
- Taste of trilobatin samples compared to sucrose ([9]; 100 ppm trilobatin in water vs 1% sucrose): less sweet
- bitterness of samples and control [10]: similarly bitter

Reference: US9844224B2, “Bitter alkaloid containing consumables comprising bitter blockers” (GIVAUDAN SA, priority 2008, dated 2017)
